Activity calls are given as the source filed them.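 How the source made its calls: active means chemicals rated mutagenic or weakly mutagenic in the Salmonella bacterial test by one literature review, or positive overall by another; inconclusive means no clear call, values can overlap the other calls; inactive means the rest.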

This note sets out measurements from PubChem BioAssay AID1194 (EPA DSSTox, 2008).

This data set relates to Salmonella typhimurium Ames mutagenicity, literature compiled. The data set is described as follows: DSSTox (CPDBAS) Carcinogenic Potency Database Salmonella Mutagenicity. The text has this: The Carcinogenic Potency Database (CPDB) is a unique and widely used international resource of the results of over 6500 chronic, long-term animal cancer tests on over 1500 chemical substances. The CPDB provides easy access to the bioassay literature, with qualitative and quantitative analyses of both positive and negative experiments that have been published over the past 50 years in the general literature and by the National Cancer Institute/National Toxicology Program. The CPDB standardizes the diverse literature of cancer bioassays that vary widely in protocol, histopathological examination and nomenclature, and in the published author's choices of what information to provide in their papers. Results are reported in the CPDB for tests in rats, mice, hamsters, dogs, and nonhuman primates, and are based on the most positive result among all experiments for each sex-species. The DSSTox CPDBAS (all species) file incorporates data from the CPDB Summary Tables for the full list of over 1500 chemical substances tested in at least one species.
A chemical is classified within the CPDB as mutagenic, i.e. "active", in the Salmonella assay if it was evaluated overall as either "mutagenic" or "weakly mutagenic" by Zeiger [Zeiger, E. (1997) Genotoxicity Database. In: Gold and Zeiger, Eds. Handbook of Carcinogenic Potency and Genotoxicity Databases. Boca Raton, FL: CRC Press, pp. 687-729. http://potency.berkeley.edu/CRCbook.html] or as overall "positive" by the EPA Gene-Tox Program [Kier et al. (1986) Mutat. Res. 168: 69-240].
On to `CN(N=O)c1ccccn1`, for which the outcome was “active; inactive”.

For the compound `CC1=CC(=O)CC(C)(C)C1`, the outcome is “inactive; active”.

On to `CCc1ccccc1`, for which the outcome was inactive.

Take `CCN(CC)C(=O)/C(Cl)=C(\C)OP(=O)(OC)OC`: the outcome is “active; inactive”.

With `CCC1CO1` (stereo unspecified), the result was active.

Consider `C=CN1CCCC1=O`, for which the result was inactive.

Turning to `N[C@@H](Cc1ccc(N(CCCl)CCCl)cc1)C(=O)O`, the outcome was “active; inactive”.

Regarding `CCOC(=O)CBr`, the result was active.

With `OB(O)O`, the result was inactive.

As for `OC(O)C(Cl)(Cl)Cl`, the outcome was active.

For `CN(C)/N=N/c1nc[nH]c1C(N)=O`, the result was active.

In the case of `O=[N+]([O-])c1ccc2ncccc2c1`, the result was active.

With `CC1CN(N=O)C(=O)NC1=O` (stereo unspecified), the result was active.

As for `CCCCCCCC(=O)OCC(COC(=O)CCCCCCC)OC(=O)CCCCCCC`, the outcome is “active; inactive”.

For `CC(O)CNCC(C)O` (stereo unspecified), the outcome was inactive.

As for `NC(=O)N/N=C/c1ccc([N+](=O)[O-])o1`, the outcome was active.

With `Cc1cc(N=Nc2c(O)ccc3ccccc23)c(S(=O)(=O)O)cc1Cl`, the result was active.

As for `N[C@@H](Cc1c[nH]c2ccccc12)C(=O)O`, the outcome was “inactive; active”.

For the compound `Nc1ccc(O)c(N)c1`, the outcome was “active; inactive”.

In the case of `O=C(O)CN(CC(=O)O)CC(=O)O`, the outcome was “inactive; active”.

Consider `O.O.O.O.O.O.O=S(=O)([O-])[O-].[Ni+2]`, for which the outcome was “inactive; active”.

Turning to `CCOc1ccc(NC(C)=O)cc1`, the outcome is “active; inactive”.

On to `C1N2CN3CN1CN(C2)C3`, for which the outcome was active.

With `NCCS(=O)(=O)O`, the outcome was “inactive; active”.

Turning to `CN1CCCC1=O`, the outcome was “inactive; active”.

Take `O=NN(CCCl)C(=O)N[C@@H]1[C@@H](O)[C@H](O)[C@@H](CO)O[C@@H]1O`: the outcome is “active; inactive”.

With `CCCN(CCC)c1c([N+](=O)[O-])cc(C(F)(F)F)cc1[N+](=O)[O-]`, the outcome was active.

`Cc1cc(C)c(S(=O)(=O)O)cc1N=Nc1cc(S(=O)(=O)O)c2ccccc2c1O`: the outcome is “inactive; active”.

For the compound `CCSCCC(N)C(=O)O` (stereo unspecified), the outcome was inactive.

Take `N/C(=N\O)c1ccc([N+](=O)[O-])o1`: the result was active.

As for `Nc1ncn([C@@H]2O[C@H](CO)[C@@H](O)[C@H]2O)c(=O)n1`, the outcome was active.

Turning to `[Cl-].[Cl-].[Hg+2]`, the outcome was “inactive; active”.

Regarding `CCOc1ccc2c(c1)C(C)=CC(C)(C)N2`, the outcome was “inactive; active”.

As to `Clc1cc2c(cc1Cl)Oc1cc(Cl)c(Cl)cc1O2`, the outcome is “inactive; active”.

In the case of `Nc1ccc2cc3ccc(N)cc3nc2c1`, the result was active.

In the case of `CCC(Cl)CCC(Cl)C(Cl)CC(Cl)C(Cl)C(Cl)CCl` (stereo unspecified), the outcome was “inactive; active”.

`C=CCCl`: the outcome was “active; inactive”.

With `C[N+](=O)[O-]`, the outcome was “inactive; active”.

As for `Nc1c(Cl)c(Cl)nc(C(=O)O)c1Cl`, the outcome is “inactive; active”.

`O=S1(=O)OCCO1`: the outcome was inactive.

Consider `ClC1=C(Cl)[C@]2(Cl)[C@@H]3[C@H]4C[C@H]([C@@H]5O[C@H]45)[C@@H]3[C@@]1(Cl)C2(Cl)Cl`, for which the outcome is “inactive; active”.

Regarding `NCCc1ccc(O)c(O)c1`, the result was active.

For the compound `CC/C(=C(/CC)c1ccc(O)cc1)c1ccc(O)cc1`, the result was inactive.

Consider `COc1cccc2c1cc([N+](=O)[O-])c1c(C(=O)O)cc3c(c12)OCO3`, for which the result was active.

As to `Nc1cc([N+](=O)[O-])ccc1O`, the result was active.

Take `NC(=S)Nc1cccc2ccccc12`: the outcome is “active; inactive”.
